The structures appear in SMILES notation.

This assay relates to tyramine oxidase (microbial, copper amine oxidase). The assay is described as follows: Compound was evaluated for inhibition of Microbial tyramine oxidase; ni denotes no inhibition detected at millimolar concentrations.
In the case of `Cl.NC[C@@H]1C[C@]1(F)c1ccccc1` (relative stereo), the IC50 result is “Not Active”.

Take `Cl.NC1(c2ccccc2)CC1F` (centres undefined): the IC50 entry is given as “Not Active”. To `NC(=O)C1CC1(F)c1ccccc1` (trans isomer) belongs “Not Active”; to `Cl.NCC[C@@H]1C[C@]1(F)c1ccccc1` (relative stereo), “Not Active”.
